Consider 31 molecules from ChEMBL document CHEMBL5338710, “Discovery of dearomatized isoprenylated acylphloroglucinols with colon tumor suppressive activities in mice via inhibiting NFκB-FAT1-PDCD4 signaling activation” (Eur J Med Chem, 2022).

Data set [1] has as its system HCT-116. Put plainly: Antiproliferative activity against human HCT-116 cells assessed as reduction in cell viability at 5 uM measured after 48 hrs by MTT assay. The format is functional, cell-based.
The test system of data set [2] is HCT-116. Put plainly: Antiproliferative activity against human HCT-116 cells assessed as reduction in cell viability measured after 48 hrs by MTT assay. The data set is classed as functional, cell-based. The settings on record: HCT-116, 48 h. (Formazan colour is commonly taken as a measure of viable cells.)
Data set [3] is described as follows: Antiproliferative activity against human PBMC cells assessed as reduction in cell viability measured after 48 hrs by MTT assay. The format is toxicity, cell-based.
For data set [4], the system named is HCT-116. Put plainly: Antitumor activity against human HCT-116 cells xenografted in nude mouse assessed as decrease in tumor volume at 25 mg/kg, iv measured upto 23 days in presence of oxaliplatin. The format is functional, organism-based. The settings on record: time <= 23.0 day.
Data set [5] has as its system HCT-116. As to the kind of experiment: Antitumor activity against human HCT-116 cells xenografted in nude mouse assessed as decrease in tumor weight at 25 mg/kg, iv measured upto 23 days in presence of oxaliplatin. The settings on record: time <= 23.0 day. The data set is classed as functional, organism-based.
Data set [6] relates to HCT-116. Put plainly: Antitumor activity against human HCT-116 cells xenografted in nude mouse assessed as decrease in tumor volume at 3 to 4 mg/kg, iv measured for 23 days in presence of oxaliplatin. The data set is classed as functional, organism-based. The settings on record: dose 3-4 mg/kg, time 23.0 day. (In xenograft studies the graft and the host belong to different species.)

Data set [7] relates to HCT-116. As to the kind of experiment: Antitumor activity against human HCT-116 cells xenografted in nude mouse assessed as reduction in tumor weight at 3 to 4 mg/kg, iv measured for 23 days in presence of oxaliplatin. The settings on record: dose 3-4 mg/kg, time 23.0 day. The format is functional, organism-based.
The target in data set [8] is Nuclear factor NF-kappa-B complex (Homo sapiens) (UniProt Q00653+P19838+Q04206). As to the kind of experiment: Inhibition of TNFalpha induced-NFkB phosphorylation in human HCT-116 cells at 1 to 5 uM pretreated for 24 hrs followed by TNFalpha induction and measured after 24 hrs by Western blot analysis. The format is cell-based. The settings on record: dose 1-5 µM, time 48.0 hrs. (A western blot detects proteins with antibodies after separation by electrophoresis.)
Sequence of Nuclear factor NF-kappa-B complex (Homo sapiens) (P19838 whole entry, looked up): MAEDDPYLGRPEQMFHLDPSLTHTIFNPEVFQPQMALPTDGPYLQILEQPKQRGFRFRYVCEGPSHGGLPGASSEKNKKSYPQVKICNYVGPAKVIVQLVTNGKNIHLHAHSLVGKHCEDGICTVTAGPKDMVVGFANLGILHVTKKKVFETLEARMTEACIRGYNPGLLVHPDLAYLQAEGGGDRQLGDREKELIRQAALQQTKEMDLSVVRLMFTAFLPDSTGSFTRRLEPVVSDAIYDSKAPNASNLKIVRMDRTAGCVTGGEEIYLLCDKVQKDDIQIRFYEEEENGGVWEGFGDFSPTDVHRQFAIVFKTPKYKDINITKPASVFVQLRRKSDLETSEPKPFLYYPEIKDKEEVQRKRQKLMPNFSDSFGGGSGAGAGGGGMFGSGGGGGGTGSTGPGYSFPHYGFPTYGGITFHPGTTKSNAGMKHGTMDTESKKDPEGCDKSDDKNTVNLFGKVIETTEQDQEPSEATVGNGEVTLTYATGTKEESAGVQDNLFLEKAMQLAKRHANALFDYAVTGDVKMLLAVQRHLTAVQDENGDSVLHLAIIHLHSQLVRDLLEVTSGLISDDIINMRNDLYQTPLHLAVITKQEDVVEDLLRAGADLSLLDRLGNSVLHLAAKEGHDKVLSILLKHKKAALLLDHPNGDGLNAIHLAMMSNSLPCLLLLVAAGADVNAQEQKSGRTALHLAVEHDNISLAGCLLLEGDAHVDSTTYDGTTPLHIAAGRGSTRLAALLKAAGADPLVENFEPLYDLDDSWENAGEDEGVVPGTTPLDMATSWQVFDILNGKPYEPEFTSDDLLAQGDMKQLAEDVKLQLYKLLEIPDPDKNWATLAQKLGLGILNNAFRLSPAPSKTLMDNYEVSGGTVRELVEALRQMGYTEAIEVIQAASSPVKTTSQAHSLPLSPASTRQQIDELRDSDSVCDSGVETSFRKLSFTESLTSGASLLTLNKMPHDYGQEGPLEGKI
Sequence of Nuclear factor NF-kappa-B complex (Homo sapiens) (Q00653 whole entry, looked up): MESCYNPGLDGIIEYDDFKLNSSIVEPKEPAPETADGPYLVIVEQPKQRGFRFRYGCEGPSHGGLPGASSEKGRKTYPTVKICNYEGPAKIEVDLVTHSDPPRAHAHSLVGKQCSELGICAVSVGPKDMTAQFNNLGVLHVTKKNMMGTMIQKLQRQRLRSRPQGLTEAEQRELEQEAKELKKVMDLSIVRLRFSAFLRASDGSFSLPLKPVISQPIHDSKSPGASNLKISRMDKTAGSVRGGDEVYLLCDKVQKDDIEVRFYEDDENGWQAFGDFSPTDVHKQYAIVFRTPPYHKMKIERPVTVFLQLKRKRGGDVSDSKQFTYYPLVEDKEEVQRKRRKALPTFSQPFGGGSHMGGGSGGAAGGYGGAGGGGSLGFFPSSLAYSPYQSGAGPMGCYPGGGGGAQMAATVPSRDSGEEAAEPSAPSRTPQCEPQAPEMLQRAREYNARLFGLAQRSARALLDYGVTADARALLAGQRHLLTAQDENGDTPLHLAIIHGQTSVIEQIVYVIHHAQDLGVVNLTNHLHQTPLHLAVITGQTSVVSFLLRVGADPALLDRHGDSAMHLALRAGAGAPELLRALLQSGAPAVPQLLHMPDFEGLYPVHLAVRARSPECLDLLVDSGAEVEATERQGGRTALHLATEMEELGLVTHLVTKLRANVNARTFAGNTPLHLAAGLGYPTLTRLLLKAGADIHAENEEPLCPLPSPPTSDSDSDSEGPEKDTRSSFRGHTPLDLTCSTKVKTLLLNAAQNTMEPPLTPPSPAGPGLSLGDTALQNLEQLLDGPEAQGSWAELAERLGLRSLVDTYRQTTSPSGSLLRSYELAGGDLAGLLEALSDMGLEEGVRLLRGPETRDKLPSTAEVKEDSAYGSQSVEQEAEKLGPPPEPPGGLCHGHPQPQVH
Sequence of Nuclear factor NF-kappa-B complex (Homo sapiens) (Q04206 whole entry, looked up): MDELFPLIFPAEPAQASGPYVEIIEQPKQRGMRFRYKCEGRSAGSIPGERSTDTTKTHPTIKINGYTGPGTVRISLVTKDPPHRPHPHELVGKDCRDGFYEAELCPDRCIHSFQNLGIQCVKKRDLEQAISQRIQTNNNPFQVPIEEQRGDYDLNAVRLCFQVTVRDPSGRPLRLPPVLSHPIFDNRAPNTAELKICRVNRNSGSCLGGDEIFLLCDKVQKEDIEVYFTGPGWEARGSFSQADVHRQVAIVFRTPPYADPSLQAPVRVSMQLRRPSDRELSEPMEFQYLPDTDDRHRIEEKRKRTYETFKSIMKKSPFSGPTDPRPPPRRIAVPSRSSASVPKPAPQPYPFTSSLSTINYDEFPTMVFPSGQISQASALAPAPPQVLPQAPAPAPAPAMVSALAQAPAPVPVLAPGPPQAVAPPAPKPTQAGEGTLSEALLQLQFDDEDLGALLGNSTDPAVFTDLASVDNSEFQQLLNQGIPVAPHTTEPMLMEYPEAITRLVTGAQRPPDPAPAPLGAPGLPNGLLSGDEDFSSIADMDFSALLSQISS

SMILES strings stand for the structures. The source made the active and inactive calls. The rule behind the calls is not given here.

Regarding `C=C(C)[C@@H]1CC[C@@]2(C)OC3=C(CC12)C(O)=C(C(=O)c1ccccc1)C(=O)C3(CC=C(C)C)CC=C(C)C` (some centres undefined), the result in data set [1] was Active.

For `CC(C)=CC[C@]1(C)C(=O)C(C(=O)C(C)C)=C(O)C2=C1OC(C)(C)C1CC[C@@](C)(O)[C@H]1C2` (some centres undefined), the result in data set [1] was Active.

As to `CC(C)=CC[C@@]12C(=O)C(C(=O)C(C)C)=C(O)C(C)=C1O[C@]1(C)CCC(C(C)C)=C[C@H]21`, in data set [1], the result was Active. A word on the IC50: it is the concentration that gives 50% inhibition. As for `C=C(C)[C@H]1CC[C@@](C)(O)[C@@H](C2=C(O)C(CC=C(C)C)(CC=C(C)C)C(=O)C(C(=O)c3ccccc3)=C2O)C1`, in data set [1], the result was Active. In data set [2], the IC50 is 3.67 µM. Moreover, in data set [3], the IC50 at 48 h was 24 µM.

Turning to `CC(C)=CCC1(CC=C(C)C)C(=O)C(C(=O)C(C)C)=C(O)C([C@H]2C[C@]3(C(C)(C)O)CC[C@@]2(C)O3)=C1O`, the result in data set [1] was Active. Same read-out and setting: next, `CC(C)=CC[C@@]12C[C@@H](C(C)(C)O)OC1=C(CC1[C@H]3CC[C@]1(C)OC3(C)C)C(O)=C(C(=O)C(C)C)C2=O` (some centres undefined): “Active”. As for `O=c1[nH]cc(F)c(=O)[nH]1`, the result in data set [4], in data set [5], in data set [6] and in data set [7] was Active. As to `COC[C@@H]1C2=C(O)C(CC=C(C)C)(CC=C(C)C)C(=O)C(C(=O)C(C)C)=C2OC1(C)C`, the outcome in data set [1] was Active. Turning to `C=C(C)[C@@H]1CC[C@@]2(C)OC3=C(CC12)C(O)=C(C(=O)C(C)C)C(=O)C3(C)CC=C(C)C` (some centres undefined), the result in data set [1] was Active. As to `CCC(C)C(=O)C1=C(O)C2=C(OC(C)(C)[C@@H]3CC[C@@](C)(O)[C@@H]3C2)[C@](C)(CC=C(C)C)C1=O` (some centres undefined), the outcome in data set [1] was Active. As to `C=C(C)[C@@H]1CC[C@@](C)(O)[C@H]1CC1=C2O[C@H](C(C)(C)O)C[C@]2(CC=C(C)C)C(=O)C(C(=O)C(C)C)=C1O`, the outcome in data set [1] was Active. On to `C=C(C)[C@@H]1CC[C@@](C)(O)[C@H]1CC1=C2O[C@H](C(C)(C)O)C[C@]2(C)C(=O)C(C(=O)C(C)CC)=C1O` (some centres undefined), for which the result in data set [1] was Active. As for `C=C(C)[C@H]1CC[C@@](C)(O)[C@@H](C2=C(O)[C@](C)(CC=C(C)C)C(=O)C(C(=O)C(C)C)=C2O)C1`, the outcome in data set [1] was Active. For the same molecule, the IC50 in data set [2] amounted to 2.63 µM. The IC50 at 48 h in data set [3] stood at 14.4 µM. In the case of `CC(C)=CC[C@@]1(C)C(=O)C(C(=O)C(C)C)=C(O)C2=C1O[C@]1(C)CC[C@@]3(C(C)C)O[C@@]13[C@H]2O`, in data set [1], the result was Active.

`CC(C)=CC[C@@]1(C)C(=O)C(C(=O)C(C)C)=C(O)C([C@H]2C[C@]3(C(C)(C)O)CC[C@@]2(C)O3)=C1O`: the result in data set [1] was Active. Regarding `C=C(C)[C@@H]1CC[C@@](C)(O)[C@H]1CC1=C2O[C@H](C(C)(C)O)C[C@]2(CC=C(C)C)C(=O)C(C(=O)c2ccccc2)=C1O`, the result in data set [1] was Active. Regarding `CC(C)=CCC1(CC=C(C)C)C(=O)C(C(=O)C(C)C)=C(O)C2=C1OC(C)(C)[C@@H]1CC[C@@](C)(O)[C@@H]1C2`, the outcome in data set [1] was Active. Still for that read-out and setting: next, `CC(C)=CCC1(CC=C(C)C)C(=O)C(C(=O)c2ccccc2)=C(O)C([C@H]2C=C(C(C)C)CC[C@@]2(C)O)=C1O`: “Active”. For the molecule `C=C(C)[C@@H]1CC[C@@](C)(O)[C@H]1CC1=C(O)C(C)(CC=C(C)C)C(=O)C(C(=O)C(C)CC)=C1O` (some centres undefined), in data set [1], the result was Active. For the same molecule, the IC50 in data set [2] came out at 5.63 µM. In data set [3], the IC50 at 48 h is greater than 100 µM. As to `C=C(C)[C@H]1CC[C@@]2(C)OC3=C(CC12)C(O)=C(C(=O)C(C)CC)C(=O)C3(C)CC=C(C)C` (some centres undefined), the result in data set [1] was Active. As to `CC(C)=CC[C@]1(C)C(=O)C(C(=O)C(C)C)=C(O)C2=C1O[C@]1(C)CC[C@]3(C(C)C)O[C@]13[C@H]2O`, the outcome in data set [1] was Active. `C=C(C)[C@@H]1CC[C@@](C)(O)[C@H]1CC1=C(O)C(CC=C(C)C)(CC=C(C)C)C(=O)C(C(=O)c2ccccc2)=C1O`: the result in data set [1] was Active. `CC(C)=CCC1(CC=C(C)C)C(=O)C(C(=O)C(C)C)=C(O)C2=C1O[C@]1(C)CCC3(C(C)C)OC31[C@H]2O` (some centres undefined): in data set [1], the outcome was Active.

Turning to `CC(C)=CCC1(CC=C(C)C)C(=O)C(C(=O)c2ccccc2)=C(O)C([C@@H]2C[C@H]3CC[C@]2(C)OC3(C)C)=C1O`, the result in data set [1] was Active. Take `CC(C)=CCC1(C)C(=O)C(C(=O)C(C)C)=C(O)C([C@@H]2C[C@H]3CC[C@]2(C)OC3(C)C)=C1O` (some centres undefined): the outcome in data set [1] was Active.

On to `CCC(C)C(=O)C1=C(O)C2=C(OC(C)(C)C3CC[C@@](C)(O)[C@H]3C2)[C@](C)(CC=C(C)C)C1=O` (some centres undefined), for which, in data set [1], the result was Active. Regarding `C=C(C)[C@@H]1CC[C@@](C)(O)[C@H]1CC1=C(O)C(CC=C(C)C)(CC=C(C)C)C(=O)C(C(=O)C(C)CC)=C1O` (some centres undefined), the outcome in data set [1] was Active. In addition, the IC50 in data set [2] came out at 2.46 µM. Besides, the IC50 at 48 h in data set [3] is 10 µM. Consider `C=C(C)[C@H]1CC[C@@](C)(O)[C@@H](C2=C(O)[C@@](C)(CC=C(C)C)C(=O)C(C(=O)C(C)CC)=C2O)C1` (some centres undefined), for which the outcome in data set [1] was Active. Further, in data set [2], the IC50 stood at 2.32 µM. The IC50 at 48 h in data set [3] came to 19.6 µM. On to `C=C(C)[C@@H]1CC[C@](C)(O)[C@H]1CC1=C2O[C@H](C(C)(C)O)C[C@]2(CC=C(C)C)C(=O)C(C(=O)c2ccccc2)=C1O`, for which the result in data set [1] was Active. For `CC(C)=CCC1(CC=C(C)C)C(=O)/C(=C(/O)c2ccccc2)C2=C(C1O)[C@H]1C=C(C(C)C)CC[C@@]1(C)O2` (some centres undefined), the outcome in data set [1] was Active. In the case of `C=C(C)[C@H]1CC[C@@](C)(O)[C@@H](C2=C(O)C(CC=C(C)C)(CC=C(C)C)C(=O)C(C(=O)C(C)C)=C2O)C1`, the inhibition entry in data set [8] is “inactive”.
